Laboratory results taken from article PMC8510236, “Unraveling the Compositional and Molecular Features Involved in Lysozyme-Benzothiazole Derivative Interactions” (Molecules, 2021).
Where a name gives a salt, the structure may show the parent alone.

Target: T1, Lysozyme from chicken egg white (Gallus gallus, UniProt P00698)
T1 construct: gene LYZ
Experiment: isothermal titration calorimetry (VP-ITC)
Type: binding
Conditions: read-out: K

T1 sequence (P00698 19-147): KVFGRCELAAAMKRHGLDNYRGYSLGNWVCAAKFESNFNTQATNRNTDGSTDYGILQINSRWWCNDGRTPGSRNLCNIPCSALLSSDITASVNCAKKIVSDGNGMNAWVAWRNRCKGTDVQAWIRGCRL

Kd: 2620 nM
Compound: O=S(=O)(O)CCCSc1nc2ccccc2s1 [BTS, 3-(2-Benzohiazolylthio)-1-propane-sulfonic acid sodium salt]
